Assay results: patent publication US6071882A, “Means for treating prostate hypertrophy and prostate cancer” (ASTA Medica AG, priority 1998, dated 2000)
Non-standard residues stand in square brackets, D forms with d. Residues, ends and D or L forms follow the SMILES beside them. dPhe(4-Cl) = N[C@H](Cc1ccc(Cl)cc1)C(=O)O; d2Nal = N[C@H](Cc1ccc2ccccc2c1)C(=O)O; dCit = NC(=O)NCCC[C@@H](N)C(=O)O; d3Pal = N[C@H](Cc1cccnc1)C(=O)O

Tests used:
BPH patients [1] = settings: cited from earlier work
BPH patients [2] = experiment: Clinical therapy of BPH with Cetrorelix; format: in vivo
Experimental: Cetrorelix is administered in a dose of 0.5 mg to 2 mg daily for 4 to 8 weeks for the therapy of BPH. A dose of 5 mg to 30 mg, dispensed once per week or every 10 days also over a time period of 4 to 8 weeks as well as one every two weeks or one injection per month of 20 mg to 60 mg can also decisively improve the clinical symptoms and signs. […] The prostate volume decreases by 20 to 40% during the treatment time of 4 to 8 weeks. […] In addition, at least 30% of the patients achieve an improvement of the urine flow of 6 ml/sec with this therapy. This is almost equivalent to an improvement like that associated with the golden standard operation, and in considerably shorter time. […] These clinical benefits continue for at least 3 to 6 months after therapy. This allows a long-term therapy of BPH with only an intermittent treatment of 2 to max. 4 injection cycles over 4 to 8 weeks.

[3] = system: Prostate carcinoma patients; settings: 500 μg every 12 hours for 6 weeks; cited from earlier work

SMILES: CC(=O)N[C@H](Cc1ccc2ccccc2c1)C(=O)N[C@H](Cc1ccc(Cl)cc1)C(=O)N[C@H](Cc1cccnc1)C(=O)N[C@@H](CO)C(=O)N[C@@H](Cc1ccc(O)cc1)C(=O)N[C@H](CCCNC(N)=O)C(=O)N[C@@H](CC(C)C)C(=O)N[C@@H](CCCNC(=N)N)C(=O)N1CCC[C@H]1C(=O)N[C@H](C)C(N)=O [Cetrorelix] (Ac-[d2Nal][dPhe(4-Cl)][d3Pal]SY[dCit]LRP[dA]-NH2)
- testosterone levels during treatment (BPH patients [1]; 500 μg every 12 hours for 4 weeks, no castration values during last three weeks): fluctuated at subnormal levels
- testosterone levels, initially (BPH patients [1]; 500 μg every 12 hours, all patients (BPH and prostate carcinoma), initially): lowering in testosterone levels to a castration level
- testosterone decrease (BPH patients [2]; above those levels associated with castration): Submaximal decreases of testosterone occur
- limitations in sexual performance (BPH patients [2]; human, in vivo): No limitations in sexual performance are observed
- quality of life (BPH patients [2]; human, in vivo): significant improvements
- increase of the peak flow of the urine (BPH patients [2]; treatment of 4 to 8 weeks): approximately 3 ml/sec
- patients achieving an improvement of the urine flow of 6 ml/sec (BPH patients [2]; treatment of 4 to 8 weeks): at least 30%
- overall condition of the patient [3]: considerable improvement
